Earlier results, collected in paper PMC10458698, “Characterization of the interferences of systemic azole antifungal drugs with adrenal steroid biosynthesis using H295R cells and enzyme activity assays” (Current Research in Toxicology, 2023).
Where two headings read alike, the source gives them in different places.

What was measured:
[1] = design: method as in earlier work; conditions: ref Zhang et al., 2018, Märtson et al., 2019, Vena et al., 2020, Risum et al., 2021, cited from earlier work
CYP11A1 = molecular target: T1, CYP11A1 (Homo sapiens, UniProt P05108); design: method as in Mast et al., 2013, Vanden Bossche et al., 1986; conditions: in words, ref Mast et al., 2013, Vanden Bossche et al., 1986; cited from earlier work
T1 construct: host or cells: V79-4 cells (Chinese hamster), transient transfection, mitochondrial fraction
T1 sequence (P05108 40-521): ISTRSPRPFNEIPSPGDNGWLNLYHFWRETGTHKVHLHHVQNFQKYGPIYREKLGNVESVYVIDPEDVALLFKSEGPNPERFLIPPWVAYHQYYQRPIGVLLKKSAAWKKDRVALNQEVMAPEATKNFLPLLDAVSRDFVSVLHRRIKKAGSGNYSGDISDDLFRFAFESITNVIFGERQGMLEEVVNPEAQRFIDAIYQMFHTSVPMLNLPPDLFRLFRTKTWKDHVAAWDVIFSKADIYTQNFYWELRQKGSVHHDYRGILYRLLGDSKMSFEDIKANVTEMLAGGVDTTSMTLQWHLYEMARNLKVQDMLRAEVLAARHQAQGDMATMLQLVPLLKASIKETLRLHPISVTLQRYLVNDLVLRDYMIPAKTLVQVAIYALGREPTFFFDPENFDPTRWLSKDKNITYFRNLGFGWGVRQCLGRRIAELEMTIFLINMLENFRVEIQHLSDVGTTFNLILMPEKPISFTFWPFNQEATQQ

[2] = design: method as in Nguyen et al., 2020; conditions: ref Nguyen et al., 2020; cited from earlier work

Compound | serum trough concentration ([1]; molar value in brackets) [µM] | serum trough concentration [1] [µg/mL] | CYP11A1 inhibition in earlier studies (CYP11A1) | serum concentration with increased risk of pseudohyperaldosteronism [2] [ng/mL]
C[C@@H](c1nc(-c2ccc(C#N)cc2)cs1)[C@](O)(Cn1cncn1)c1cc(F)ccc1F [isavuconazole] | ~1 | 4 | – | –
CCC(C)n1ncn(-c2ccc(N3CCN(c4ccc(OCC5COC(Cn6cncn6)(c6ccc(Cl)cc6Cl)O5)cc4)CC3)cc2)c1=O (stereo not shown) [itraconazole] | – | 0.5 to 1 | no substantial inhibition | –
CC[C@@H]([C@H](C)O)n1ncn(-c2ccc(N3CCN(c4ccc(OC[C@@H]5CO[C@@](Cn6cncn6)(c6ccc(F)cc6F)C5)cc4)CC3)cc2)c1=O [posaconazole, Posaconazole] | – | > 0.7 | moderate CYP11A1 inhibition | > 2500
